Measurements reported in the supplement of paper PMC8960247.
Counter-ions that a name gives are not always drawn. ± gives the standard error.

Experiments:
621-102 (TSC2-deficient) = experiment: relative viability vs DMSO; higher = less cytotoxic; details: serum: 10% FBS, 72 h
621-103 (TSC2-rescued) = experiment: as above; details: serum: 10% FBS, 72 h
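Also: immortalized renal angiomyolipoma cells stably carrying empty vector or TSC2, dosed in 384-well plates in DMEM, viability normalized to vehicle-treated wells within each plate.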

| Structure (SMILES) | relative viability (621-102 (TSC2-deficient); 0.0001 µM) [%] | relative viability (621-102 (TSC2-deficient); 0.001 µM) [%] | relative viability (621-102 (TSC2-deficient); 0.01 µM) [%] | relative viability (621-102 (TSC2-deficient); 0.1 µM) [%] | relative viability (621-102 (TSC2-deficient); 1 µM) [%] | relative viability (621-102 (TSC2-deficient); 10 µM) [%] | relative viability (621-103 (TSC2-rescued); 0.0001 µM) [%] | relative viability (621-103 (TSC2-rescued); 0.001 µM) [%] | relative viability (621-103 (TSC2-rescued); 0.01 µM) [%] | relative viability (621-103 (TSC2-rescued); 0.1 µM) [%] | relative viability (621-103 (TSC2-rescued); 1 µM) [%] | relative viability (621-103 (TSC2-rescued); 10 µM) [%] |
| --- | --- | --- | --- | --- | --- | --- | --- | --- | --- | --- | --- | --- |
| COc1cc2/c(=N/c3ccc(Br)cc3F)nc[nH]c2cc1OCC1CCN(C)CC1 [Vandetanib] | 94.4 ± 4.3 | 101 ± 3.8 | 109 ± 3.6 | 115 ± 1.7 | 102 ± 1.1 | 33.9 ± 2.9 | 102 ± 2.5 | 99.63 ± 0.8 | 98.84 ± 0.35 | 97.74 ± 0.94 | 98.3 ± 0.93 | 11.4 ± 1.8 |
| CC(C)c1cc(C(C)C)c(CC(=O)NS(=O)(=O)Oc2c(C(C)C)cccc2C(C)C)c(C(C)C)c1 [Avasimibe (CI-1011)] | 106.2 ± 1 | 97.5 ± 2.1 | 95.2 ± 2.4 | 99.6 ± 1.3 | 104.3 ± 0.53 | 106 ± 3.6 | 108 ± 8.1 | 99.44 ± 0.32 | 105 ± 3.1 | 101 ± 0.45 | 97.89 ± 0.25 | 97.8 ± 3.3 |
| Nc1cccc2c1CN(C1CCC(=O)NC1=O)C2=O (stereo not drawn) [Lenalidomide] | 107 ± 2.9 | 115 ± 1.9 | 113 ± 3 | 112 ± 2.1 | 109 ± 4.8 | 98.472 ± 0.068 | 101 ± 1.6 | 98.8 ± 1 | 100 ± 1.1 | 100.4 ± 0.81 | 100.5 ± 0.13 | 98.62 ± 0.12 |
| Cn1cnc2c(F)c(Nc3ccc(Br)cc3Cl)c(C(=O)NOCCO)cc21 [AZD6244 (Selumetinib)] | 84 ± 9.2 | 89.89 ± 0.22 | 96.8 ± 1.1 | 98.9 ± 5.4 | 84.7 ± 1.2 | 88.21 ± 0.5 | 101.6 ± 0.39 | 100.1 ± 0.89 | 105.2 ± 1 | 106 ± 1.1 | 104 ± 2.8 | 89 ± 2.5 |
| O=C1NC(=O)/C(=C\c2ccc3nccnc3c2)S1 | 106 ± 1.9 | 114 ± 1.2 | 120.5 ± 1.1 | 108 ± 7.8 | 105.2 ± 0.38 | 110 ± 3.2 | 100.2 ± 0.99 | 96.5 ± 2.7 | 98.02 ± 0.75 | 100 ± 1.5 | 99.5 ± 1.9 | 98.8 ± 1.3 |
| COc1cc(OC)c(NC(=O)Nc2cc(C)on2)cc1Cl | 83.6 ± 4.5 | 92 ± 5 | 97.3 ± 3.8 | 89.4 ± 4.5 | 96.7 ± 7 | 92.8 ± 3.9 | 113 ± 2.2 | 109 ± 3.5 | 105 ± 3.8 | 113 ± 2.9 | 109 ± 2.6 | 111 ± 2.2 |
| O=c1oc2cc(O)ccc2s1 [Tioxolone] | 103 ± 7.6 | 105.7 ± 0.97 | 105 ± 4 | 94.8 ± 1.4 | 104 ± 2.6 | 99.31 ± 0.92 | 71.1 ± 7.9 | 80 ± 6.3 | 75.42 ± 0.21 | 80.9 ± 4.5 | 71.5 ± 8.5 | 60.9 ± 5 |
| CN1CC[C@H](c2c(O)cc(O)c3c(=O)cc(-c4ccccc4Cl)oc23)[C@H](O)C1 [Flavopiridol (Alvocidib)] | 104 ± 1.3 | 104.1 ± 0.59 | 95.5 ± 5 | 45.4 ± 1.9 | 11.3 ± 0.76 | 11.7 ± 0.13 | 103 ± 4.3 | 100.4 ± 0.89 | 102.2 ± 0.86 | 55.26 ± 0.43 | 17.8 ± 0.22 | 21.81 ± 0.19 |
| COc1cc2nccc(Oc3ccc(NC(=O)C4(C(=O)Nc5ccc(F)cc5)CC4)cc3)c2cc1OC [XL184] | 110.1 ± 0.14 | 97.1 ± 3.1 | 98.8 ± 3.1 | 107 ± 1.7 | 107 ± 2 | 99.4 ± 0.21 | 97.27 ± 0.56 | 98.1 ± 1.1 | 96.6 ± 1.1 | 98.8 ± 2.2 | 98.7 ± 1.5 | 81.9 ± 4.7 |
| C[C@@H]1CCN(C(=O)CC#N)C[C@@H]1N(C)c1ncnc2[nH]ccc12 | 113 ± 2.6 | 98.5 ± 1.1 | 106 ± 4.8 | 109 ± 1.1 | 98.6 ± 2.7 | 104 ± 1.3 | 104 ± 4.3 | 100 ± 2.5 | 99.134 ± 0.051 | 102 ± 2.4 | 107 ± 0.27 | 96.7 ± 1.1 |
| CN(C/C=C/C#CC(C)(C)C)Cc1cccc2ccccc12 [Terbinafine HCl] | 96.9 ± 2.1 | 97 ± 1.5 | 92 ± 0.96 | 94.1 ± 2.5 | 101 ± 3 | 91.3 ± 3.5 | 101 ± 3.3 | 99.3 ± 5.4 | 104 ± 2.1 | 101 ± 1.3 | 101 ± 1.3 | 97.22 ± 0.58 |
| CN(C)Cc1ccc(-c2nc3cccc4c3n2CCNC4=O)cc1 | 125 ± 2.7 | 120.04 ± 0.068 | 127 ± 1.8 | 119 ± 5 | 118 ± 2.8 | 110 ± 1.7 | 103.8 ± 0.6 | 101.41 ± 0.034 | 102 ± 1.3 | 105 ± 1.6 | 103 ± 0.17 | 97.7 ± 0.77 |
| OC(CNCC(O)C1CCc2cc(F)ccc2O1)C1CCc2cc(F)ccc2O1 (stereo not drawn) [Nebivolol HCl] | 81.745 ± 0.015 | 103 ± 2.9 | 106 ± 1.1 | 118 ± 7.1 | 106 ± 2.9 | 77.1 ± 11 | 86.6 ± 8.6 | 116.1 ± 0.89 | 114.3 ± 0.92 | 120 ± 2.8 | 108 ± 4.2 | 36.4 ± 5.6 |
| NC1(Cc2ccc(Cl)cc2)CCN(c2ncnc3[nH]ccc23)CC1 | 65.2 ± 2.3 | 81 ± 1.2 | 81.4 ± 1.9 | 92.8 ± 5.6 | 77.3 ± 3.3 | 60.6 ± 1 | 114 ± 2.5 | 102 ± 1.4 | 111 ± 2.4 | 102 ± 5.5 | 96.3 ± 4.4 | 72 ± 0.83 |
| COc1cc(Nc2c(C#N)cnc3cc(OCCCN4CCN(C)CC4)c(OC)cc23)c(Cl)cc1Cl [Bosutinib (SKI-606)] | 94.6 ± 3.7 | 109 ± 3.2 | 92.7 ± 6.8 | 103 ± 7.9 | 64.3 ± 7.2 | 3.18 ± 0.88 | 85.39 ± 0.5 | 93.6 ± 3 | 94.5 ± 6 | 90.2 ± 6.4 | 69.5 ± 4 | 1.86 ± 0.19 |
| CN1CCN(C2=Nc3cc(Cl)ccc3Nc3ccccc32)CC1 [Clozapine] | 100 ± 1.7 | 108 ± 1.1 | 105.2 ± 0.32 | 104 ± 2.2 | 94.53 ± 0.49 | 98.1 ± 3.2 | 101.3 ± 0.79 | 113 ± 2.2 | 109 ± 1.1 | 105 ± 0.64 | 109 ± 0.24 | 92.73 ± 0.46 |
| COc1ccc(-c2cc3c(C)nc(N)nc3n([C@H]3CC[C@H](OCCO)CC3)c2=O)cn1 | 101 ± 5.6 | 110 ± 2.5 | 91.2 ± 5 | 65.6 ± 0.94 | 26.7 ± 0.68 | 14.1 ± 0.26 | 92.8 ± 1.8 | 98.4 ± 2.6 | 88.1 ± 2.7 | 56.7 ± 2 | 30.52 ± 0.21 | 18.61 ± 0.18 |
| NC(=O)c1ccc(I)c([N+](=O)[O-])c1 [BSI-201] | 136 ± 2.7 | 130 ± 0.89 | 126.6 ± 0.33 | 116.12 ± 0.099 | 113.7 ± 0.28 | 110 ± 3.1 | 108 ± 2.5 | 103 ± 1.1 | 105.9 ± 0.65 | 102 ± 1.9 | 100.5 ± 0.3 | 102.3 ± 0.13 |
| CC/C(=C(\c1ccccc1)c1ccc(OCCN(C)C)cc1)c1ccccc1 [Tamoxifen Citrate] | 102.7 ± 0.75 | 98.8 ± 1.8 | 111 ± 2.6 | 98.76 ± 0.6 | 100.8 ± 1 | 80.9 ± 5.2 | 101 ± 3.6 | 102 ± 3.1 | 104 ± 5.2 | 101 ± 2.4 | 107 ± 3.5 | 48.1 ± 2.6 |
